Data taken from PMC4468182, “Murine Efficacy and Pharmacokinetic Evaluation of the Flaviviral NS5 Capping Enzyme 2-Thioxothiazolidin-4-One Inhibitor BG-323” (PLoS ONE, 2015).
Where “and” joins values, the source holds several entries; their conditions need not be identical. Equal entries are not always repeated.

Experiments:
[1] = test system: West Nile virus (NY99 strain); assay: In vitro West Nile virus efficacy assay (plaque assay); assay type: cell-based
[2] = test system: Powassan virus (LB strain); assay type: cell-based
[3] = test system: WNV (Kunjin subtype); assay: BG-323 resistance study, six rounds of infection; assay type: cell-based, West Nile virus; details: 75 μM BG-323, BHK21 cells, 100 PFU Kunjin per round, six 3-day rounds
Method: On day one, BHK-21 cells (ATCC) were seeded in 12-well plates at 50,000 cells/mL and allowed to attach overnight. The following day, each of 9 wells was infected with 100 PFU WNV (Kunjin subtype) in complete DMEM (cDMEM) and 3 uninfected control wells received cDMEM only. Cells were incubated with media for 2 hr at 37°C to allow cells to become infected. After 2 hr, infected cDMEM was replaced with new media containing DMSO or 75 μM BG-323. Each condition was run in triplicate. Following DMSO or drug administration, cells were incubated at 37°C. On day 3, samples were collected and stored at -80°C. Viral titers were calculated by plaque assay as previously described on one tube of the day 3 samples for each replicate. 100 PFU from an unthawed day 3 sample was used to infect fresh BHK 21 cells to start the next round of infection. The three-day cycle was considered one round of infection and the study continued for 6 rounds. The infectious input of Kunjin virus and the concentrations (75 μM) of BG-323 were held constant throughout the study.

[4] = In vivo toxicity assay (mouse weight); set-up: species or system ICR mice; details: 50 mg/kg IP
Method: Two groups of 3 mice each were either injected with 150 μL of 50 mg/kg BG-323 (synthesized by Brian McNaughton’s group at CSU [15]) formulated in 10% DMSO, 15% solutol and 75% saline or DMSO vehicle in the same formulation. Mice were weighed daily for 7 days and percent of maximum weight loss was calculated.

[5] = test system: WNV NY99; assay: In vivo antiviral efficacy in WNV NY99-challenged mice; set-up: species or system ICR mice; key to Clinical score, day 1 post-challenge / Clinical score, day 2 post-challenge / Clinical score, day 3 post-challenge / Clinical score, day 4 post-challenge / Clinical score, day 5 post-challenge / Clinical score, day 6 post-challenge / Clinical score, day 7 post-challenge / Clinical score, day 8 post-challenge / Clinical score, day 9 post-challenge / Clinical score, day 10 post-challenge / Clinical score, day 11 post-challenge / Clinical score, day 12 post-challenge / Clinical score, day 13 post-challenge / Clinical score, day 14 post-challenge: 0 is normal; 1 is questionable illness; 2 is distinct mild illness; 3 is distinct disease; 4 is serious disease/moribund
[6] = Plasma protein binding assay (Rapid Equilibrium Dialysis); assay type: in vitro ADME; details: human plasma, 5 μM, pH 7.4, 37°C, 4 hr
[7] = test system: West Nile virus (subtype Kunjin); set-up: method as in PMID 22674988; details: 75 μM, cell culture, previously tested; cited from earlier work
[8] = test system: Yellow fever viruses; details: cited from earlier work
[9] = test system: Caco-2 cells; assay: Caco-2 cell permeability assay; details: 5 μM, Caco-2, pH 7.4, 120 min
[10] = target: CYP P450 isoform 2C9 (Homo sapiens, UniProt P11712); assay: CYP P450 binding assay, isoform 2C9; details: 10 μM, human liver microsomes, diclofenac substrate, vs sulfaphenazole positive control
[11] = target: CYP P450 isoform 3A4 (Homo sapiens, UniProt P08684); assay: CYP P450 binding assay, isoform 3A4; details: 10 μM, human liver microsomes, midazolam substrate, vs ketoconazole positive control
[12] = In vivo half-life (T1/2), serum LC/MS/MS
[13] = Metabolic stability assay in liver microsomes; details: 1 μM, human liver microsomes 0.5 mg/mL, NADPH
[14] = mice, 0.38 mL bolus of 5 mg/mL, serum

Sequence of CYP P450 isoform 3A4 (P08684 whole entry, canonical isoform): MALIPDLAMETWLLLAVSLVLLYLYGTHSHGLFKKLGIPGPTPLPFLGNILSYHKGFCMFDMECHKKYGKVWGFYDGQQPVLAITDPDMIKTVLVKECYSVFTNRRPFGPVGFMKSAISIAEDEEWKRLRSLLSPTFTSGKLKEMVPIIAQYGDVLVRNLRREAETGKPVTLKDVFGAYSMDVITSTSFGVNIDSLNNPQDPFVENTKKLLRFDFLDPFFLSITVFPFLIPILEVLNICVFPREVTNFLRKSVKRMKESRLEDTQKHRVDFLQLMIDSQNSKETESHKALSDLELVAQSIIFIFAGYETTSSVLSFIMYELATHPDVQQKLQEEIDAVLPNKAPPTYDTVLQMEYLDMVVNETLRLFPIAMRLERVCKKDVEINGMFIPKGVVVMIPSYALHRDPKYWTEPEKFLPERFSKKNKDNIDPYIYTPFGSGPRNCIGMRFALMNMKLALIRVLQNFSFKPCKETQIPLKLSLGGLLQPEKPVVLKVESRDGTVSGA
Sequence of CYP P450 isoform 2C9 (P11712 whole entry, canonical isoform): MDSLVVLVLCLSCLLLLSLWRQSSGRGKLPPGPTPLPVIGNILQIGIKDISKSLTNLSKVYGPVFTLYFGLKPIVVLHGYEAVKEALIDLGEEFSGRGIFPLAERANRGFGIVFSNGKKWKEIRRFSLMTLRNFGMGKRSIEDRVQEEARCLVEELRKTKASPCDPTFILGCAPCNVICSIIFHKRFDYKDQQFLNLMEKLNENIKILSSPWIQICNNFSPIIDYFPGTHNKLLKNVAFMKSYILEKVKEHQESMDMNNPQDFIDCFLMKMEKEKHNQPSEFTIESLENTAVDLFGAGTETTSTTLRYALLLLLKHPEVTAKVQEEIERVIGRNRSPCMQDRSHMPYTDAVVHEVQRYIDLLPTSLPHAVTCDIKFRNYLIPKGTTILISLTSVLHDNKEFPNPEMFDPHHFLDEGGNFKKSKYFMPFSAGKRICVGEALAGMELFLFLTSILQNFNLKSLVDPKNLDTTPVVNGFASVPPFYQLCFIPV

CC(C)(C)c1ccc(/C=C2/SC(=S)N(CCC(=O)O)C2=O)cc1 [BG-323, (E)-{3-[5-94-tert-butylbenzylidene0-4-oxo-2-thioxo-1,3-thiazolidin-3-yl]propanoic acid}]
reduction of West Nile virus titers [1]: approximately 5 logs
reduction in viral titers compared to DMSO controls (WNV) ([1]; 75 μM, BHK21 cells, 72 hours, Fig 1 legend): ~5 fold
reduction in viral titers compared to DMSO controls (Powassan) [2]: ~5 fold
reduction of Powassan virus titers [2]: approximately 5 logs
emergence of resistance (viral titers over time) [3]: no significant increase in viral titers over time
gross toxicity in mice ([4]; 7 days): does not appear to be grossly toxic
average weight loss percentage (maximum weight loss) ([4]; mice, weights monitored 7 days): 3.5%
average viral titers in sera on day three ([5]; 500 PFU WNV NY99 footpad, 50 mg/kg IP BID 5 days, day 3 post challenge): 1.6x10^5 PFU/mL
Clinical score, day 1 post-challenge ([5]; individual WNV NY99-challenged mice, 50 mg/kg IP BID 5 days, day 1): 0
Clinical score, day 2 post-challenge ([5]; individual WNV NY99-challenged mice, 50 mg/kg IP BID 5 days, day 2): 0
Clinical score, day 3 post-challenge ([5]; individual WNV NY99-challenged mice, 50 mg/kg IP BID 5 days, day 3): 0
Clinical score, day 4 post-challenge ([5]; individual WNV NY99-challenged mice, 50 mg/kg IP BID 5 days, day 4): 0
Clinical score, day 5 post-challenge ([5]; individual WNV NY99-challenged mice, 50 mg/kg IP BID 5 days, day 5): 0
Clinical score, day 6 post-challenge ([5]; individual WNV NY99-challenged mice, 50 mg/kg IP BID 5 days, day 6): 1
Clinical score, day 7 post-challenge ([5]; individual WNV NY99-challenged mice, 50 mg/kg IP BID 5 days, day 7): 1 and 4
Clinical score, day 8 post-challenge ([5]; individual WNV NY99-challenged mice, 50 mg/kg IP BID 5 days, day 8): 1 and 4
Clinical score, day 9 post-challenge ([5]; individual WNV NY99-challenged mice, 50 mg/kg IP BID 5 days, day 9): 4 and 2 and 1
Clinical score, day 10 post-challenge ([5]; individual WNV NY99-challenged mice, 50 mg/kg IP BID 5 days, day 10): 4 and 1
Clinical score, day 11 post-challenge ([5]; individual WNV NY99-challenged mice, 50 mg/kg IP BID 5 days, day 11): 1
Clinical score, day 12 post-challenge ([5]; individual WNV NY99-challenged mice, 50 mg/kg IP BID 5 days, day 12): 0
Clinical score, day 13 post-challenge ([5]; individual WNV NY99-challenged mice, 50 mg/kg IP BID 5 days, day 13): 0
Clinical score, day 14 post-challenge ([5]; individual WNV NY99-challenged mice, 50 mg/kg IP BID 5 days, day 14): 0
survival probability (Kaplan-Meier) versus control ([5]; mouse, in vivo): approximately the same between the two groups
percent bound to plasma proteins [6]: 99.9%
log reduction of titers, West Nile virus (subtype Kunjin) [7]: approximately 2 log
log reduction of titers, Yellow fever virus [8]: ~1 log
Average Papp, A to B ([9]; A to B): 49.4±1 x 10^−6 cm/s
Percent Recovery, A to B ([9]; A to B): 43%
Average Papp, B to A ([9]; B to A): 49.6±9.5 x 10^−6 cm/s
Percent Recovery, B to A ([9]; B to A): 57%
percent inhibition of CYP 2C9 [10]: insignificant compared to positive controls
percent inhibition of CYP 3A4 [11]: insignificant compared to positive controls
T1/2 in mice ([12]; 0.38 mL bolus of 5 mg/mL, serum): 1.75 h
Initial concentration (C0) [12, 14]: 19275 ng/mL
elimination rate constant (Kel) [12, 14]: 0.395 h⁻¹
average serum concentration five min after administration ([12]; mice, 0.38 mL of 5 mg/mL, 5 min): ~21,000 ng/mL
T1/2 in human liver microsomes [13]: > 1 h
in vitro intrinsic clearance (CLint) [13]: < 0.023 mL/min/mg protein
percent of initial concentration remaining at 60 minutes ([13]; 60 min): 85%
